These results are taken from patent publication US9060997B2, “Antifolate compounds for the treatment of melanoma” (UNIVERSIDAD DE MURCIA, priority 2007, dated 2015).

Assay [1] relates to B16/F10 melanoma cell tumours. The experiment in a line: Primary tumour model, B16/F10 melanoma in C57/B16 mice. The class given is in vivo, mouse. The text has this: Translational therapy was then designed to probe the efficacy of this combination on mice induced melanoma tumor. Injection of 5×10^5 B16/F10 melanoma cells in the back of C57/B16 mice formed a blackish tumor mass, which in untreated control mice reached to a tumor area of 3.7±0.7 and 9.3±1.1 cm2 in female and male, respectively, after 21 days of cells inoculation.

In a further assay the target is T1, rHDHFR (Homo sapiens, UniProt P00374).
T1 construct: purchased Sigma
T1 sequence (P00374 1-187): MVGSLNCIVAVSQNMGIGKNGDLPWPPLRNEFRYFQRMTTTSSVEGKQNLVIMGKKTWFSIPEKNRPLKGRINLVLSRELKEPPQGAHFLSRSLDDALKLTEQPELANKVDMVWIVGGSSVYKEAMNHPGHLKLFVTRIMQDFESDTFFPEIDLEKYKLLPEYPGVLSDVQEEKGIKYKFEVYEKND
Description: rHDHFR binding: fluorescence titration and stopped-flow fluorescence. The method, then:
The experiments were carried out in a buffer containing 2-(N-morpholino)ethanesulfonic acid (Mes, 0.025 M), sodium acetate (0.025 M), tris-(hydroxymethyl)aminomethane (Tris 0.05 M), and NaCl (0.1 M) at pH 7.4 and 25° C. in the presence of QM and rHDHFR (0.5 μM).
Stopped-flow fluorescence experiments were carried out at pH 7.4 and 25° C. using an enzyme concentration of 0.25 μM. The reaction of rHDHFR with inhibitors was observed under pseudo-first order conditions by fluorescence at 340 nm (excitation at 290 nm). The data points s are the means of at least 3 (normally 5) repeat observations±SD. […] Aliquots (20 μl) of the incubation mixture was then diluted 50-fold into a reaction mixture containing the buffer, NADPH (100 μM), and DHF (10 μM) to give a final enzyme concentration of 1.5 nM.
The activity of rHDHFR was determined at 25° C. by following the decrease in the absorbance of NADPH and DHF at 340 nm (ε=11800 M-1 cm−1) (Stone and Morrison, 1986). Progress curves were obtained under ordered conditions ([NADPH]>>[DHF]). rHDHFR inhibition constants were calculated as described by Navarro-Perán et al., 2005b. The dissociation constant for the binding of inhibitors to free rHDHFR was determined at 25° C. by fluorescence titration in an automatic-scanning Perkin-Elmer LS50B spectrofluorimeter. Fluorescence emission spectra were recorded when rHDHFR fluorescence was excited at 290 nm. Stopped-flow fluorescence experiments were carried out using an Applied Photophysics Ltd. Pi-Star 180 spectrometer with a stopped-flow unit at 25° C.

In another assay the test system is H1264 cells. The experiment in a line: MTT cell proliferation assay, H1264. The format is cell-based. As to conditions: Homo sapiens, 144 h; H1264, 6 days of treatment. The method, then: (§1) Four human cancer cells lines (SkMel-28, MCF7, H1264 and Caco-2) were obtained from the American Type Tissue Culture Collection (ATCC) and were maintained in appropriate culture mediums supplemented with 10% fetal calf serum (FCS) and antibiotics, under standard tissue culture conditions (e.g. modified Eagle's medium (MEM) containing 1 mM sodium pyruvate and 10% fetal bovine serum (FES) under 5% CO2/95% air atmosphere.). Cell injury was evaluated by a colorimetric assay for mitochondrial function using the 3-(4,5-dimethylthiazolyl-2)-2,5-diphenyltetrazolium bromide (MTT) cell proliferation assay. For this assay cells were plated in a 96-well plate at a density of 1000 cells/well and grown until they reached 50-60% confluence. Human epidermal melanocytes (HeM) were supplied by Gentaur and were cultured in HAM-F10 medium supplemented with 10% FCS, antibiotics and the human melanocyte growth supplement (Gentaur).

For the next assay, the system named is Caco-2 cells. Description: MTT cell proliferation assay, Caco-2. The class given is cell-based, human. As to conditions: Homo sapiens, 144 h; Caco-2, 6 days of treatment. Here is the method:
as §1
On the technique in general: Formazan colour is commonly taken as a measure of viable cells.

The test system of a further assay is B16 melanoma. The experiment in a line: Mouse tumor model, B16 melanoma, topical TMECG cream. The class given is in vivo. Here is the method: Female C57/B16 mice 6-8 weeks old were obtained from the Animal Research Service (University of Murcia, Spain) and were housed in our animal facilities. All animal work was performed in accordance with the government guidelines. The B16 melanoma cell line (ATCC) was culture in RPMI 1640 medium under standard tissue culture conditions. Mice were shaved on the back using a long-hair cutter and 7.5×10^5 B16 melanoma cells resuspended in 25 μl sterile PBS were injected intradermally on the back. Animals with tumors more than 8 mm in diameter on day 8 or nonvisible tumor growth by day 12 were excluded. Groups consisting of 20 mice per group were differently treated starting at day 8 after tumor cell injection. For TMECG treatments this compound was uniformly mixed in a cosmetic base cream (Thae, Murcia, Spain). Topical treatment of TMECG was given every day at a dose of ≈1 mg/cm2 skin area. Control mice (non-TMECG treated) were topically treated with the some amount of cream alone. Tumor growth and body weight were monitored every second day. A postmortem with histological examination of the lung, liver and brain was performed in all animals. Tissues were fixed in 10% formaldehyde, dehydrated and embedded in paraffin wax. Sections (4 μm) were stained with eosin and hematoxylin. Analyses of gluconic acid content in lungs were carried out as described elsewhere (Pradeep and Kuttan, 2002).

The subject of assay [2] is γ-glutamylcysteine synthetase (GCS) mRNA. Description: GCS mRNA determination in SkMel-28. The format is cell-based, human. To be noted: SkMel-28 treated with TMECG. Here is the method: Histograms compare the estimated relative levels of the mRNA with respect to that of β-actin. Values represent the number of copies of mRNA per each 1×10^6 copies of β-actin.
cDNA samples (1 μL) were used for real-time PCR in a total volume of 20 μL using SYBR Green Reagent (Applied Biosystems) and specific primers on a 7500 Real Time PCR System of Applied Biosystems. The PCR amplification cycles included denaturation 95° C., 15 min; to activate HotStar Taq DNA polymerase and to minimize primer-dimer contribution), and amplification [over 40-50 cycles including denaturation (94° C.; 30 s), annealing (55° C.; 30 s), and extension (72° C.; 1 min)]. All PCR reactions were performed in triplicate and from at least two independent experiments. Non-RT control and negative control samples (without template) were processed in the same manner. The specificity of the amplification was verified by melting curve analysis for all samples, and occasionally by agarosa gel electrophoresis. Amplification of target gene sequences were compared against serial dilutions of know quantities of their purified cDNA fragments, and normalized to the abundance of the house-keeping gene β-actin.

The mark [3] stands for this setting: treated for 21 days, post-mortem.

Turning to `COc1cc(C(=O)O[C@@H]2Cc3c(O)cc(O)cc3O[C@@H]2c2ccc(O)c(O)c2)cc(OC)c1OC` [TMECG, 3-O-(3,4,5-trimethoxybenzoyl)-(−)-epicatechin], the tumor mass reduction in assay [1] (females, TMECG 2.5 mg/Kg/d) is 27%. In addition, the “effect of single treatments” value in assay [1] (male mice) was “not effective”. Also, the koff (in general, a measure of how fast the partners let go of each other) on rHDHFR (calculated from KI=koff/kon, read-out: koff) is 0.29 s⁻¹. Further, at rHDHFR (dissociation constant, free rHDHFR, fluorescence titration, pH 7.4, 25° C.), affinity was put at a Ki of 2.1 µM. In addition, the association rate constant (kon) (as a rule, the rate constant with which the complex forms) on rHDHFR (stopped-flow fluorescence, pH 7.4, 25° C., read-out: kon) stood at 140000 M⁻¹ s⁻¹. In addition, the IC50 (commonly the concentration that inhibits the measured activity by half) with H1264 cells was found to be 18 µM; in the assay with Caco-2 cells, 33 µM. Besides, the tumor growth entry in the assay with B16 melanoma (topical, ≈1 mg/cm2 skin area every day) is recorded as “significantly reduced”. In the assay with B16 melanoma (topical, ≈1 mg/cm2 skin area every day, female C57/B16 mice), the survival time entry is listed as “longer survival time”. Besides, the “liver and brain metastasis” value in the assay on B16 melanoma (setting [3]) is “no metastasis in these organs was detected”. Besides, the lung metastasis entry in the assay with B16 melanoma (setting [3]) is given as “drastically reduced lung metastasis”. Besides, the “GCS mRNA, mean value” in assay [2] is 26300 copies per million of copies of β-actin mRNA.
